Experiments:
[1] = target: human Gal-1 (hGal-1); test: Competitive binding assay: binding of biotinylated hGal-1 to microplate-adsorbed asialofetuin (ASF); conditions: Activities on hGal-1; mean values of several measurements
Summary of the method: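 For hGal-1, a variant with all six cysteines replaced by serines is preferred. Either galectin, biotinylated at 300-1000 ng/mL, competes with compound for microplate-bound ASF over 3 h at 4° C; peroxidase/ABTS detection gives IC50, averaged.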

[2] = target: human Gal-3 (hGal-3) (Homo sapiens (Human), UniProt P17931); test: Competitive binding assay: binding of biotinylated hGal-3 to microplate-adsorbed asialofetuin (ASF); conditions: Activity on hGal-3; mean values of several measurements
Sequence of human Gal-3 (hGal-3) (P17931 whole entry): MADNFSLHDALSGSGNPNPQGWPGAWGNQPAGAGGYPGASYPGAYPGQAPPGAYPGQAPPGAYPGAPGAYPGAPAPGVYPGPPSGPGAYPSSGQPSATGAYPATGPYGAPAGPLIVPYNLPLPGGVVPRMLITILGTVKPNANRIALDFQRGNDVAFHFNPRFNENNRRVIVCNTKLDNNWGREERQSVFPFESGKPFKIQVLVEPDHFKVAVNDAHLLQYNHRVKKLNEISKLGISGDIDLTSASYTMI
Summary of the method: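 Spectrophotometric readout (streptavidin-peroxidase, ABTS) of biotinylated galectin retained on ASF-coated wells. Biotinylated hGal-1 or hGal-3, 300-1000 ng/mL, co-incubated with test compound 3 h at 4° C, then washed. Mean IC50 from repeat runs.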

Sequence of human Gal-1 (hGal-1) (P09382 2-135 limits assumed): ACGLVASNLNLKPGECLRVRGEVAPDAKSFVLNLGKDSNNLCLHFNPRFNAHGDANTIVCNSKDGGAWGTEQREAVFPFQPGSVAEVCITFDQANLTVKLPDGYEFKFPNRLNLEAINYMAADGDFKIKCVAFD

IC50 [1] [nM]	IC50 [2] [nM]	SMILES
140	140	CO[C@@H]1[C@@H](n2cc(-c3cccc(F)c3)nn2)[C@@H](O)[C@@H](CO)O[C@@H]1Cc1cc(C2CCN(C(=O)OC(C)(C)C)CC2)no1 [Ex 1.123]
800	31	CO[C@@H]1[C@@H](n2cc(-c3ccc(Cl)c(F)c3)nn2)[C@@H](O)[C@@H](CO)O[C@@H]1Cc1cc(C2CCN(C(=O)OC(C)(C)C)CC2)no1 [Ex 1.124]
1000	140	CO[C@@H]1[C@@H](n2cc(-c3ccc(Br)c(F)c3)nn2)[C@@H](O)[C@@H](CO)O[C@@H]1Cc1cc(C2CCN(C(=O)OC(C)(C)C)CC2)no1 [Ex 1.125]
440	81	CO[C@@H]1[C@@H](n2cc(-c3cc(F)cc(F)c3)nn2)[C@@H](O)[C@@H](CO)O[C@@H]1Cc1cc(C2CCN(C(=O)OC(C)(C)C)CC2)no1 [Ex 1.126]
9840	300	CO[C@@H]1[C@@H](n2cc(-c3cc(F)c(F)c(F)c3)nn2)[C@@H](O)[C@@H](CO)O[C@@H]1Cc1cc(-c2nc(Br)cs2)on1 [Ex 1.127]
15400	870	CO[C@@H]1[C@@H](n2cc(-c3cc(F)c(F)c(F)c3)nn2)[C@@H](O)[C@@H](CO)O[C@@H]1CC1=NO[C@@H](C2CCCCC2)C1 [Ex 1.128]
14700	270	CO[C@@H]1[C@@H](n2cc(-c3cc(F)c(F)c(F)c3)nn2)[C@@H](O)[C@@H](CO)O[C@@H]1CC1=NO[C@H](C2CCCCC2)C1 [Ex 1.129]
18100	260	CO[C@@H]1[C@@H](n2cc(-c3cc(F)c(F)c(F)c3)nn2)[C@@H](O)[C@@H](CO)O[C@@H]1Cc1cc(C23CCC(NC(=O)OC(C)(C)C)(CC2)CC3)on1 [Ex 1.130]
7440	140	CO[C@@H]1[C@@H](n2cc(-c3cc(F)c(F)c(F)c3)nn2)[C@@H](O)[C@@H](CO)O[C@@H]1Cc1cc(C23CCC(N)(CC2)CC3)on1 [Ex 1.131]
760	69	CO[C@@H]1[C@@H](n2cc(-c3cc(F)c(F)c(F)c3)nn2)[C@@H](O)[C@@H](CO)O[C@@H]1Cc1cc(C2(O)CCN(C(=O)OC(C)(C)C)CC2)on1 [Ex 1.132]
10700	230	CO[C@@H]1[C@@H](n2cc(-c3cc(F)c(F)c(F)c3)nn2)[C@@H](O)[C@@H](CO)O[C@@H]1Cc1cc(C2(O)CCNCC2)on1 [Ex 1.133]
10800	84	CO[C@@H]1[C@@H](n2cc(-c3cc(F)c(F)c(F)c3)nn2)[C@@H](O)[C@@H](CO)O[C@@H]1Cc1cc(C2CCC(NC(=O)OC(C)(C)C)CC2)no1 (stereo partly drawn) [Ex 1.134]
9000	100	CO[C@@H]1[C@@H](n2cc(-c3cc(F)c(C)c(F)c3)nn2)[C@@H](O)[C@@H](CO)O[C@@H]1CC1CC(C2CCN(C(=O)OC(C)(C)C)CC2)=NO1 (stereo partly drawn) [Ex 1.135]
4770	112	CO[C@@H]1[C@@H](n2cc(-c3ccc(C)c(F)c3)nn2)[C@@H](O)[C@@H](CO)O[C@@H]1CC1CC(C2CCN(C(=O)OC(C)(C)C)CC2)=NO1 (stereo partly drawn) [Ex 1.136]
1880	48	CO[C@@H]1[C@@H](n2cc(-c3ccc(C)c(F)c3F)nn2)[C@@H](O)[C@@H](CO)O[C@@H]1CC1CC(C2CCN(C(=O)OC(C)(C)C)CC2)=NO1 (stereo partly drawn) [Ex 1.137]
15300	130	CN=[S@@](=O)(C(C)C)N1CCC(c2cc(C[C@H]3O[C@H](CO)[C@H](O)[C@H](n4cc(-c5cc(F)c(F)c(F)c5)nn4)[C@H]3OC)no2)CC1 [Ex 1.138]
1130	42	CN=[S@](=O)(C(C)C)N1CCC(c2cc(C[C@H]3O[C@H](CO)[C@H](O)[C@H](n4cc(-c5cc(F)c(F)c(F)c5)nn4)[C@H]3OC)no2)CC1 [Ex 1.139]
690	49	CO[C@@H]1[C@@H](n2cc(-c3ccc(Cl)c(F)c3F)nn2)[C@@H](O)[C@@H](CO)O[C@@H]1CC1CC(C2CCN(C(=O)OC(C)(C)C)CC2)=NO1 (stereo partly drawn) [Ex 1.140]
790	97	CO[C@@H]1[C@@H](n2cc(-c3ccc(Br)c(F)c3F)nn2)[C@@H](O)[C@@H](CO)O[C@@H]1CC1CC(C2CCN(C(=O)OC(C)(C)C)CC2)=NO1 (stereo partly drawn) [Ex 1.141]
1320	71	CO[C@@H]1[C@@H](n2cc(-c3ccc(Br)c(F)c3F)nn2)[C@@H](O)[C@@H](CO)O[C@@H]1CC1CC(C2CCNCC2)=NO1 (stereo partly drawn) [Ex 1.142]
190	100	CO[C@@H]1[C@@H](n2cc(-c3ccc(F)c(F)c3F)nn2)[C@@H](O)[C@@H](CO)O[C@@H]1CC1CC(C2CCN(C(=O)OC(C)(C)C)CC2)=NO1 (stereo partly drawn) [Ex 1.143]
740	180	CO[C@@H]1[C@@H](n2cc(-c3ccc(F)c(F)c3F)nn2)[C@@H](O)[C@@H](CO)O[C@@H]1CC1CC(C2CCNCC2)=NO1 (stereo partly drawn) [Ex 1.144]
1560	170	CO[C@@H]1[C@@H](n2cc(-c3cc(F)c(Cl)c(F)c3)nn2)[C@@H](O)[C@@H](CO)O[C@@H]1CC1CC(C2CCN(C(=O)OC(C)(C)C)CC2)=NO1 (stereo partly drawn) [Ex 1.145]

IC50 [1] [nM]	IC50 [2] [nM]	SMILES
4660	240	CO[C@@H]1[C@@H](n2cc(-c3cc(F)c(Cl)c(F)c3)nn2)[C@@H](O)[C@@H](CO)O[C@@H]1CC1CC(C2CCNCC2)=NO1 (stereo partly drawn) [Ex 1.146]
470	84	CCOC(=O)N1CCC(c2cc(C[C@H]3O[C@H](CO)[C@H](O)[C@H](n4cc(-c5ccc(Cl)c(F)c5)nn4)[C@H]3OC)no2)CC1 [Ex 1.149]
140	23	CCOC(=O)N1CCC(c2cc(C[C@H]3O[C@H](CO)[C@H](O)[C@H](n4cc(-c5ccc(F)c(F)c5F)nn4)[C@H]3OC)no2)CC1 [Ex 1.150]
1020	19	CCOC(=O)N1CCC(c2cc(C[C@H]3O[C@H](CO)[C@H](O)[C@H](n4cc(-c5ccc(C)c(F)c5F)nn4)[C@H]3OC)no2)CC1 [Ex 1.151]
1510	39	CO[C@@H]1[C@@H](n2cc(-c3cc(F)c(C)c(F)c3)nn2)[C@@H](O)[C@@H](CO)O[C@@H]1Cc1cc(C2CCN(S(C)(=O)=O)CC2)on1 [Ex 1.152]
1600	67	CO[C@@H]1[C@@H](n2cc(-c3ccc(C)c(F)c3)nn2)[C@@H](O)[C@@H](CO)O[C@@H]1Cc1cc(C2CCN(S(C)(=O)=O)CC2)on1 [Ex 1.153]
360	33	CO[C@@H]1[C@@H](n2cc(-c3ccc(Cl)c(F)c3F)nn2)[C@@H](O)[C@@H](CO)O[C@@H]1Cc1cc(C2CCN(S(C)(=O)=O)CC2)on1 [Ex 1.154]
940	31	CO[C@@H]1[C@@H](n2cc(-c3ccc(Cl)c(F)c3)nn2)[C@@H](O)[C@@H](CO)O[C@@H]1Cc1cc(C2CCN(S(C)(=O)=O)CC2)on1 [Ex 1.156]
94	30	CO[C@@H]1[C@@H](n2cc(-c3ccc(F)c(F)c3F)nn2)[C@@H](O)[C@@H](CO)O[C@@H]1Cc1cc(C2CCN(S(C)(=O)=O)CC2)on1 [Ex 1.157]
1520	66	CO[C@@H]1[C@@H](n2cc(-c3cc(F)c(Cl)c(F)c3)nn2)[C@@H](O)[C@@H](CO)O[C@@H]1Cc1cc(C2CCN(S(C)(=O)=O)CC2)on1 [Ex 1.158]
1530	57	CO[C@@H]1[C@@H](n2cc(-c3ccc(C)c(F)c3F)nn2)[C@@H](O)[C@@H](CO)O[C@@H]1Cc1cc(C2CCN(S(C)(=O)=O)CC2)on1 [Ex 1.159]
730	78	CO[C@@H]1[C@@H](n2cc(-c3cc(F)cc(Cl)c3)nn2)[C@@H](O)[C@@H](CO)O[C@@H]1Cc1cc(C2CCN(S(C)(=O)=O)CC2)on1 [Ex 1.160]
1660	34	CO[C@@H]1[C@@H](n2cc(-c3cc(F)c(C)c(F)c3)nn2)[C@@H](O)[C@@H](CO)O[C@@H]1Cc1cc(C2CCN(C(C)=O)CC2)on1 [Ex 1.161]
740	37	CO[C@@H]1[C@@H](n2cc(-c3ccc(C)c(F)c3)nn2)[C@@H](O)[C@@H](CO)O[C@@H]1Cc1cc(C2CCN(C(C)=O)CC2)on1 [Ex 1.162]
1070	38	CO[C@@H]1[C@@H](n2cc(-c3ccc(Br)c(F)c3F)nn2)[C@@H](O)[C@@H](CO)O[C@@H]1Cc1cc(C2CCN(C(C)=O)CC2)on1 [Ex 1.164]
680	59	CO[C@@H]1[C@@H](n2cc(-c3ccc(Cl)c(F)c3)nn2)[C@@H](O)[C@@H](CO)O[C@@H]1Cc1cc(C2CCN(C(C)=O)CC2)on1 [Ex 1.165]
260	26	CO[C@@H]1[C@@H](n2cc(-c3ccc(F)c(F)c3F)nn2)[C@@H](O)[C@@H](CO)O[C@@H]1Cc1cc(C2CCN(C(C)=O)CC2)on1 [Ex 1.166]
930	29	CO[C@@H]1[C@@H](n2cc(-c3ccc(C)c(F)c3F)nn2)[C@@H](O)[C@@H](CO)O[C@@H]1Cc1cc(C2CCN(C(C)=O)CC2)on1 [Ex 1.168]
470	154	CO[C@@H]1[C@@H](n2cc(-c3cc(F)cc(Cl)c3)nn2)[C@@H](O)[C@@H](CO)O[C@@H]1Cc1cc(C2CCN(C(C)=O)CC2)on1 [Ex 1.169]
> 100000	400	CO[C@@H]1[C@@H](n2cc(-c3cc(F)c(C)c(F)c3)nn2)[C@@H](O)[C@@H](CO)O[C@@H]1Cc1cc(C2CCCCC2)on1 [Ex 1.170]
13200	440	CO[C@@H]1[C@@H](n2cc(-c3ccc(C)c(F)c3)nn2)[C@@H](O)[C@@H](CO)O[C@@H]1Cc1cc(C2CCCCC2)on1 [Ex 1.171]
57000	260	CO[C@@H]1[C@@H](n2cc(-c3ccc(Cl)c(F)c3F)nn2)[C@@H](O)[C@@H](CO)O[C@@H]1Cc1cc(C2CCCCC2)on1 [Ex 1.172]
